Test results reported in ChEMBL document CHEMBL1201862, “PubChem BioAssay data set” (2004).
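All cell lines were grown in 96-well plates and treated with compound for 48 hours. Here, GI50 denotes the concentration required for 50% inhibition of growth.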 Activity calls are given as the source filed them. Cut-off read from the data, not from the text of the source: active = GI50 up to about 1.1 µM and inactive = higher.

Assays:
Experiment in all cases: NCI-60 cell line screen, 48 h
[1] = tested on: SF-268
[2] = tested on: SW-620
[3] = tested on: EKVX
[4] = tested on: HOP-62
[5] = tested on: HCC 2998
[6] = tested on: SK-MEL-28
[7] = tested on: UO-31
[8] = tested on: MCF7
[9] = tested on: KM12
[10] = tested on: IGROV-1
[11] = tested on: RXF 393
[12] = tested on: TK-10
[13] = tested on: OVCAR-4
[14] = tested on: SF-539
[15] = tested on: T47D
[16] = tested on: DU-145
[17] = tested on: NCI-H23
[18] = tested on: HCT-116
[19] = tested on: BT-549
[20] = tested on: MDA-N

Structure (SMILES)	GI50 [1]	GI50 [2]	GI50 [3]	GI50 [4]	GI50 [5]	GI50 [6]	GI50 [7]	GI50 [8]	GI50 [9]	GI50 [10]	GI50 [11]	GI50 [12]	GI50 [13]	GI50 [14]	GI50 [15]	GI50 [16]	GI50 [17]	GI50 [18]	GI50 [19]	GI50 [20]
COc1cc(C2NCCC(c3ccccc3)(c3ccccc3)N2)cc(OC)c1OC (stereo unspecified)	52.4 µM (inactive)	19 µM (inactive)	> 100 µM (inactive)	34 µM (inactive)	20.7 µM (inactive)	17 µM (inactive)	12.2 µM (inactive)	20.1 µM (inactive)	12.6 µM (inactive)	27.2 µM (inactive)	42.7 µM (inactive)	9.31 µM (inactive)	81.1 µM (inactive)	11.3 µM (inactive)	58.2 µM (inactive)	97.3 µM (inactive)	23.4 µM (inactive)	4.43 µM (inactive)	–	–
O=C(CSCC(=O)N/N=C\c1cccc([N+](=O)[O-])c1)N/N=C\c1cccc([N+](=O)[O-])c1	39.9 µM (inactive)	> 100 µM (inactive)	53.6 µM (inactive)	2.01 µM (inactive)	30.9 µM (inactive)	> 100 µM (inactive)	34.4 µM (inactive)	38.5 µM (inactive)	> 100 µM (inactive)	23.1 µM (inactive)	49.8 µM (inactive)	17.4 µM (inactive)	> 100 µM (inactive)	24 µM (inactive)	34.1 µM (inactive)	54.1 µM (inactive)	14.2 µM (inactive)	27.7 µM (inactive)	–	–
CCOC(=O)/C1=C(\C)N(c2ccc(C)cc2)C(=O)c2ccccc2C(=O)c2c(OC(C)=O)ccc(OC(C)=O)c21	37.5 µM (inactive)	34.7 µM (inactive)	–	18.5 µM (inactive)	–	< 0.01 µM (active)	38.5 µM (inactive)	26.1 µM (inactive)	15 µM (inactive)	4.01 µM (inactive)	22.2 µM (inactive)	19.3 µM (inactive)	12.8 µM (inactive)	25.8 µM (inactive)	13.7 µM (inactive)	31.8 µM (inactive)	19.9 µM (inactive)	15.3 µM (inactive)	25.3 µM (inactive)	–
CN(C)c1nc(N)nc(CS)n1	> 100 µM (inactive)	> 100 µM (inactive)	> 100 µM (inactive)	56.1 µM (inactive)	> 100 µM (inactive)	> 100 µM (inactive)	> 100 µM (inactive)	> 100 µM (inactive)	> 100 µM (inactive)	> 100 µM (inactive)	> 100 µM (inactive)	> 100 µM (inactive)	80.7 µM (inactive)	> 100 µM (inactive)	> 100 µM (inactive)	> 100 µM (inactive)	> 100 µM (inactive)	> 100 µM (inactive)	> 100 µM (inactive)	–
O=C(/C=C/c1c(O)ccc2ccccc12)c1ccccc1	> 100 µM (inactive)	22.5 µM (inactive)	> 100 µM (inactive)	> 100 µM (inactive)	> 100 µM (inactive)	> 100 µM (inactive)	> 100 µM (inactive)	–	> 100 µM (inactive)	> 100 µM (inactive)	> 100 µM (inactive)	> 100 µM (inactive)	> 100 µM (inactive)	> 100 µM (inactive)	–	–	95.7 µM (inactive)	> 100 µM (inactive)	–	–
CC(=O)Nc1ccc(/C=c2\sc3nnc(-c4cccnc4)n3c2=O)cc1	25.2 µM (inactive)	17.8 µM (inactive)	18.9 µM (inactive)	21.8 µM (inactive)	20.7 µM (inactive)	17 µM (inactive)	12 µM (inactive)	–	16.8 µM (inactive)	16.9 µM (inactive)	22.3 µM (inactive)	21.6 µM (inactive)	14.6 µM (inactive)	18.7 µM (inactive)	–	–	15.8 µM (inactive)	15.6 µM (inactive)	–	–
CCCC1=NC(C(F)(F)F)(C(F)(F)F)N=C(N2CCOCC2)O1	> 100 µM (inactive)	> 100 µM (inactive)	> 100 µM (inactive)	> 100 µM (inactive)	> 100 µM (inactive)	> 100 µM (inactive)	> 100 µM (inactive)	> 100 µM (inactive)	> 100 µM (inactive)	> 100 µM (inactive)	> 100 µM (inactive)	> 100 µM (inactive)	80.2 µM (inactive)	> 100 µM (inactive)	> 100 µM (inactive)	> 100 µM (inactive)	> 100 µM (inactive)	> 100 µM (inactive)	> 100 µM (inactive)	–
CSC1=C(C(=O)N(COCC[Si](C)(C)C)c2ccccc2Br)CCC(C(C)(C)C)C1 (stereo unspecified)	–	13.8 µM (inactive)	13.8 µM (inactive)	18.1 µM (inactive)	13.4 µM (inactive)	25.8 µM (inactive)	12.6 µM (inactive)	10.6 µM (inactive)	14.2 µM (inactive)	23.2 µM (inactive)	9.79 µM (inactive)	23.5 µM (inactive)	10.5 µM (inactive)	–	6.81 µM (inactive)	22.4 µM (inactive)	13.8 µM (inactive)	5.32 µM (inactive)	28.1 µM (inactive)	–
CC(=O)OCC(C)C1=C(O)C(=O)C2(C)C/C=C(/C)CC/C=C(\C)CCC(O)C(C)CCC12 (stereo unspecified)	18 µM (inactive)	19.2 µM (inactive)	16.4 µM (inactive)	17 µM (inactive)	–	16.7 µM (inactive)	14.2 µM (inactive)	24.9 µM (inactive)	14.2 µM (inactive)	15.2 µM (inactive)	12.3 µM (inactive)	19.6 µM (inactive)	17.5 µM (inactive)	16.3 µM (inactive)	1.94 µM (inactive)	17.9 µM (inactive)	17.8 µM (inactive)	18.8 µM (inactive)	–	17 µM (inactive)
CCOC(=O)CC1=N/C(=N/c2cc(Cl)ccc2Cl)SC1	> 100 µM (inactive)	> 100 µM (inactive)	> 100 µM (inactive)	> 100 µM (inactive)	> 100 µM (inactive)	> 100 µM (inactive)	> 100 µM (inactive)	–	> 100 µM (inactive)	> 100 µM (inactive)	> 100 µM (inactive)	> 100 µM (inactive)	> 100 µM (inactive)	> 100 µM (inactive)	–	–	> 100 µM (inactive)	97.9 µM (inactive)	–	–
COc1ccc(C2=Nc3ccccc3NC(=O)C2)cc1	23.4 µM (inactive)	16.7 µM (inactive)	> 100 µM (inactive)	22.5 µM (inactive)	> 100 µM (inactive)	> 100 µM (inactive)	34.4 µM (inactive)	–	> 100 µM (inactive)	34.6 µM (inactive)	22.3 µM (inactive)	27.9 µM (inactive)	> 100 µM (inactive)	29.4 µM (inactive)	–	–	26.9 µM (inactive)	20.5 µM (inactive)	–	–
C/C(=N/NC(=O)c1ccccc1O)c1ccc(/C(C)=N\NC(=O)c2ccccc2O)c2nc3cc(C)c(C)cc3nc12	> 100 µM (inactive)	> 100 µM (inactive)	> 100 µM (inactive)	> 100 µM (inactive)	> 100 µM (inactive)	> 100 µM (inactive)	> 100 µM (inactive)	–	> 100 µM (inactive)	> 100 µM (inactive)	> 100 µM (inactive)	> 100 µM (inactive)	> 100 µM (inactive)	> 100 µM (inactive)	–	–	> 100 µM (inactive)	> 100 µM (inactive)	–	–
